Holding throughout (experiment): Yeast 6x EcRE-lacZ β-galactosidase transactivation assay
Common to all, as to format: cell-based

The target in experiment [1] is T1, Cf EcR + Cf ΔA/B USP + GRIP1 (Choristoneura fumiferana, UniProt O77240).
T1 construct: human ubiquitin (76 aa) (N, cleaved yes); expressed in transfected cells; host or cells: yeast (Saccharomyces cerevisiae); GRIP1 from pRS423-ADH1GRIP812
On the procedure:
(§1) Briefly, yeast cells are cultured in 5 mL of YPD liquid medium overnight at 30° C. The cell culture was diluted 1:20 in YPD media and further grown until cell density reached an O.D of 0.6. at OD600. The cells were pelleted by centrifugation and washed with 10 mL of TE+0.1M lithium acetate. Cells are then resuspended in 10 mL TE+0.1M lithium acetate and incubated at 30° C. for 1 hour. Cells are collected and resuspended in 0.5 mL of TE+ 0.1M lithium acetate. Aliquots of cells (50 μL), were incubated for 15 minutes at 30° C. with 1–2 μg plasmid DNA in the presence of 5 μg of denatured salmon sperm DNA as DNA carrier. In the case of co-transformation, the indicated plasmids were added simultaneously. 50% polyethyleneglycol of molecular weight 4000, diluted in TE, was added to a final concentration of 35%. DMSO was added to the transformation solution simultaneously to a final concentration 3%. The samples were mixed well by vortexing and incubated for an additional 30 minutes at 30° C. The cell mixture is then heated for 15 minutes at 42° C. Cells were then collected and plated onto appropriate yeast selective media. Transformants of 4 plasmids are selected on the complete media without tryptophan, uracil, leucine and histidine.
(§2) The yeast cells grown overnight in selective liquid media at 30° C. were diluted in prewarmed liquid selective media to 0.1 at OD600 (ODculture). 100 μl of the cell culture was spiked to each well of a.96-well microtiter plate. Ligand (2 μl diluted in DMSO) was added to each well giving a final concentration of DMSO of 2%. As a control, 2 μl of DMSO were also added to additional test wells. The final concentration of the tested compounds in the media is 10 μM. The cells were incubated in the presence of ligand in a shaker at 30° C. After 4 hours of incubation, 100 μl of 2× “Z” Sarcosine-ONPG buffer (120 mM Na2HPO4, 80 mM NaH2PO4, 20 mM KCl, 2 mM MgSO4, 100 mM beta-mercaptoethanol (Sigma), pH 7.0, 0.4% lauroyl sarcosine (Sigma), 4 mg/mL ONPG (Diagnostic Chemicals limited) was added to each well and the plate was further incubated at 37° C. The 2× “Z” Sarcosine-ONPG buffer is freshly prepared or stored at −20° C. prior to use. After incubation at 37° C. for 1 hour. The reaction was stopped by adding 100 μL of quenching solution 0.5 M Na2CO3 and OD405 (ODreaction) and beta-galactosidase activity was measured in a micro plate reader (Biotek) at a wave length of 405–450 nanometers. The effect of copper on enhancement of the transactivation response mediated by the ligands tested was studied by adding CuSO4 to the media to a final concentration of 10 μM.
(§3) Using the transformation method described above, yeast were co-transformed with a reporter gene as shown in FIG. 2 and the expression vector encoding the full-length Choristoneura fumiferana ecdysone receptor, Cf EcR (FIG. 5A) in the presence or absence of the Cf EcR heterodimer partner, Cf USP (FIG. 6A). Transformed cells were incubated with DMSO alone as a control, or with a proprietary ecdysone receptor ligand (Rohm & Haas RH5992) at final concentration 10 μM for 4 hours. The samples were then assayed for β-galactosidase activity as described above. […] However, as with all systems tested, fruit fly, mosquito and spruce bud worm, co-expression of CfEcR with CfUSP did give rise to constitutive transactivation of reporter gene. […] However, deletion of the A/B domain of the CfUSP abolished this constitutive transactivation of the reporter gene. Thus, in the spruce bud worm system, constitutive transcription is not observed when CfEcR/Cf ΔAB USP or Cf ΔAB EcR/Cf ΔAB USP are co-expressed. […] Ligand dependent transactivation was observed only in the presence of the co-activator GRIP1. We also observed stronger ligand dependent activity for the Cf ΔA/B EcR+Cf ΔA/B USP+GRIP1 combination than the CfEcR+CfΔA/B USP+GRIP1 combination.

For experiment [2], the target named is T2, Cf USP (Choristoneura fumiferana, UniProt O76202).
T2 construct: human ubiquitin (76 aa) (N, cleaved yes); expressed in transfected cells; host or cells: yeast (Saccharomyces cerevisiae), plasmid pRS425CfUSP, CUP1 promoter
T2 sequence (O76202 whole entry): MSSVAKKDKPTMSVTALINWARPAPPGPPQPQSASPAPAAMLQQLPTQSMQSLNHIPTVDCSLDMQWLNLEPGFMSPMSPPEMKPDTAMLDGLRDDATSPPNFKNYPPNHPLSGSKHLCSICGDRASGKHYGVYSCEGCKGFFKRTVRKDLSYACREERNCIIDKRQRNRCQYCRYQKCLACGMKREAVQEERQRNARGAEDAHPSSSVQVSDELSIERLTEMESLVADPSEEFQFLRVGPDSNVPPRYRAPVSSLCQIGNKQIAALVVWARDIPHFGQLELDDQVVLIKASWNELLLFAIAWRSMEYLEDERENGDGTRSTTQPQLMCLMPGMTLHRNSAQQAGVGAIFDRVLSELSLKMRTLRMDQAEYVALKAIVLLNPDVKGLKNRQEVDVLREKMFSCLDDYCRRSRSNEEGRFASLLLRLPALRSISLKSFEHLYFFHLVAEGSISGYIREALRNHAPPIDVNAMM
The following applies: RH 5992 10 μM, 4 hours, DMSO control 0.233. The protocol:
as §1, §2, §3

The target in experiment [3] is T3, Cf ΔA/B EcR + Cf ΔA/B USP (Choristoneura fumiferana, UniProt O77240).
T3 construct: human ubiquitin (76 aa) (N, cleaved yes); expressed in transfected cells; host or cells: yeast (Saccharomyces cerevisiae)
T3 sequence (O77240 entry or part of it, stated change not applied): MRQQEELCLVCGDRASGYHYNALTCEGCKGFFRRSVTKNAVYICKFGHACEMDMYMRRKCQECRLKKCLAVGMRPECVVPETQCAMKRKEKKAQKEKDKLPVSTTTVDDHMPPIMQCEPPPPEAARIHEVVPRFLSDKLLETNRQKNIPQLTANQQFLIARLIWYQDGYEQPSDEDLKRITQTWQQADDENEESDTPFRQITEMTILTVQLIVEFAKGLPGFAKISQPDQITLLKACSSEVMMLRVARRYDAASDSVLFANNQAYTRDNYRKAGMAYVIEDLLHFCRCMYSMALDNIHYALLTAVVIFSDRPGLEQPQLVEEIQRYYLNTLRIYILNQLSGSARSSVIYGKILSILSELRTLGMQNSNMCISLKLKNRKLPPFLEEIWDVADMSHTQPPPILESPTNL
T3 sequence (O76202 with tags, fused parts or gaps partner): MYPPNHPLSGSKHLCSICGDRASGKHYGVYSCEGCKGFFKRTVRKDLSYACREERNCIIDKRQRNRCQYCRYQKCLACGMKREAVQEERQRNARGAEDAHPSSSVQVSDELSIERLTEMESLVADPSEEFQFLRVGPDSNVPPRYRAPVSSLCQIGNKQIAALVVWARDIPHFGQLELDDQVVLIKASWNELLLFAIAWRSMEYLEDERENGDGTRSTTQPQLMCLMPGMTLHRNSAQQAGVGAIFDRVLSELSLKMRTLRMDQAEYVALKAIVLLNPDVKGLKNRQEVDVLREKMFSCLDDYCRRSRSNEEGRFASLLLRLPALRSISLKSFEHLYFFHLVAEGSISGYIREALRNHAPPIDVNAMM
The following applies: RH 5992 10 μM, 4 hours, DMSO control 0.209. The protocol:
as §1, §2, §3

Experiment [4] concerns the target T4, Cf EcR + Cf ΔA/B USP (Choristoneura fumiferana, UniProt O77240).
T4 construct: human ubiquitin (76 aa) (N, cleaved yes); expressed in transfected cells; host or cells: yeast (Saccharomyces cerevisiae)
The following applies: RH 5992 10 μM, 4 hours, DMSO control 0.205. On the procedure:
as §1, §2, §3

For experiment [5], the target named is T5, Cf ΔA/B EcR + Cf USP (Choristoneura fumiferana, UniProt O77240).
T5 construct: human ubiquitin (76 aa) (N, cleaved yes); expressed in transfected cells; host or cells: yeast (Saccharomyces cerevisiae)
T5 sequence (O77240 entry or part of it, stated change not applied): as the sequence (O77240 entry or part of it, stated change not applied) above
T5 sequence (O76202 whole entry partner): as the sequence (O76202 whole entry) above
The following applies: RH 5992 10 μM, 4 hours, DMSO control 2.684. On the procedure:
as §1, §2, §3

Experiment [6] concerns the target T6, Cf EcR (Choristoneura fumiferana, UniProt O77240).
T6 construct: human ubiquitin (76 aa) (N, cleaved yes); expressed in transfected cells; host or cells: yeast (Saccharomyces cerevisiae), plasmid YEpCfEcR, CUP1 promoter
The following applies: RH 5992 10 μM, 4 hours, DMSO control 0.201. On the procedure:
as §1, §2, §3

In experiment [7] the target is T7, Cf EcR + CfUSP (Choristoneura fumiferana, UniProt O77240).
T7 construct: human ubiquitin (76 aa) (N, cleaved yes); expressed in transfected cells; host or cells: yeast (Saccharomyces cerevisiae)
T7 sequence (O77240 1-513): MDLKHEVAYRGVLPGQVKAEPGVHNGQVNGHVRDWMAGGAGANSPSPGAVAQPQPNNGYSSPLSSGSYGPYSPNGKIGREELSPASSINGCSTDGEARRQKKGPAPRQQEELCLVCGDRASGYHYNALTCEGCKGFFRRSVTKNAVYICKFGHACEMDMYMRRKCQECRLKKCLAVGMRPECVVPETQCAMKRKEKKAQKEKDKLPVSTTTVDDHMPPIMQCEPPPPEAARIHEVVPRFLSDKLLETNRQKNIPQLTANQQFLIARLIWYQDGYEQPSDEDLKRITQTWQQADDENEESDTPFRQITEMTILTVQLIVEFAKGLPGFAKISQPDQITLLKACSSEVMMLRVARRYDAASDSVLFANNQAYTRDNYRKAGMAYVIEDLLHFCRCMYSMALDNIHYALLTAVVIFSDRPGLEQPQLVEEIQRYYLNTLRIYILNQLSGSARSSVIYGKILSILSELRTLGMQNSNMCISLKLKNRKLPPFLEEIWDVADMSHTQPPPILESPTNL
T7 sequence (O76202 whole entry partner): as the sequence (O76202 whole entry) above
The following applies: RH 5992 10 μM, 4 hours, DMSO control 2.734. The protocol: as §1, §2, §3

T1 sequence (O77240 1-513, stated change not applied): as the sequence (O77240 1-513) above
T1 sequence (O76202 with tags, fused parts or gaps partner): as the sequence (O76202 with tags, fused parts or gaps partner) above
T4 sequence (O77240 1-513, stated change not applied): as the sequence (O77240 1-513) above
T4 sequence (O76202 with tags, fused parts or gaps partner): as the sequence (O76202 with tags, fused parts or gaps partner) above
T6 sequence (O77240 1-513): as the sequence (O77240 1-513) above

On to `CCc1ccc(C(=O)NN(C(=O)c2cc(C)cc(C)c2)C(C)(C)C)cc1` [RH 5992, tebufenozide], for which the β-galactosidase activity in experiment [1] (RH 5992 10 μM, 4 hours, yeast, Cf EcR + Cf ΔA/B USP + GRIP1, DMSO control 0.223) was determined as 0.492; in experiment [2] it was 0.230; in experiment [3], 0.234; in experiment [4], 0.241; in experiment [5] it was 3.000; in experiment [6], 0.175. Further, the β-galactosidase activity in experiment [7] came out at 3.000. Besides, the “response of the complex to the ligand (in words)” value in experiment [1] (complex CfEcR:CfΔA/B USP:GRIP1) is “responsive, but not very sensitive”.

For the origin of these results see US7037656B2, “Methods and compositions for identifying ligands for nuclear receptors” (priority 2000, dated 2006).
